# Columns and labels:
# [1] = tested on: exosomes isolated from hypoxic cells; experiment: Fluorescent plate reader detection of pimonidazole adducts in isolated exosomes with FITC anti-pimonidazole antibody; format: cell-based; settings: FITC-labeled anti-pimonidazole antibody, plate reader 485/528 nm
# Description: FIGS. 10A-10B are charts showing results from a flow cytometry-based bead assay designed to allow conventional flow cytometers to assess the presence of various markers on exosome sized particles. This is accomplished by using beads of known size which are bound by exosomes if they have the marker (antibody target) in question. It is clear that exosomes derived from hypoxic cells have an augmented amount of pimonidazole adducts present. The inventors also tested for the general immunoreactivity of hypoxic-cell derived exosomes using a standard plate reader and a commercially available fluorescently conjugated anti-pimonidazole antibody. Briefly, isolated exosomes from cell culture medium from mouse serum samples were, suspended in 1% bovine serum albumin, and incubated with a fluorescently tagged anti-pimonidazole antibody. After a period of 2 hours or overnight, the exosomes were washed twice, resuspended in PBS and the fluorescent signal was determined using a Cytation 5 multi-mode plate reader.
# Labeling exosomes with FITC-conjugated anti-pimonidazole antibody and quantifying the labeled exosomes'(FIG. 11): 10-40 μg of exosomes were utilized for antibody labeling in a 100 μl total volume containing 1% BSA as a blocking reagent. […] Fluorescence readings were obtained using a Cytation 5 plate reader at excitation/emission wavelengths of 485/528 nm (+/−20 nm).
# [2] = tested on: 4T1 murine breast cancer cells; experiment: Bead-assisted flow cytometry for CD81+/Pimo+ vesicles from hypoxic or oxic cell cultures; format: cell-based; settings: 100 μM pimonidazole, 24 hours, 0.5% oxygen vs regular air
# Protocol: Isolating exosome from cell culture and Flow Cytometry analysis of isolated exosomes utilizing bead-assisted assay (FIGS. 10A-10B): 4T1 murine breast cancer cells were cultured in DMEM medium containing 10% Fetal Bovine Serum (FBS) at 37° C. in a humidified incubator with 5% CO2 and sub-cultured twice a week. For isolation of exosomes from 4T1 cultures, 1 million cells were plated in 10 cm plates and allowed to adhere overnight in the incubator. Cells were then washed with PBS, and the medium was changed to a medium containing 5% exosome-depleted FBS. Plates were grouped into four sets of five plates each. 100 μM pimonidazole was added to two sets, half of plates were incubated in a regular air incubator, and the other half in an incubator containing 0.5% Oxygen. After 24 hours, the medium was collected and subjected to sequential centrifugation at 1200, 3000, 10000, and 35000 rpm for 5, 15, 45 minutes, and 4 hours respectively. The final pellet was washed with PBS and centrifuged at 35000 rpm for 2 hours before being resuspended in 100 μl of PBS. The exosome amount was estimated using a BCA protein assay and the exosomes size was confirmed using a Nanoparticle Tracking Analyzer (NTA Instrument). […] Following the manufacture protocols, compensation beads were used to optimize fluorescence compensation settings and correct for spectral overlap between fluorophores. […]
smiles,measurement,setting,value
O=[N+]([O-])c1nccn1CC(O)CN1CCCCC1 (centres unmarked) [pimonidazole],"increase in fluorescence signal, exosomes from hypoxic cells vs cells grown in normal oxygen",[1],~2.5 fold
same,enhancement in percent of vesicles labeled in hypoxic vs oxic conditions,[2],4 fold

# — US20260287579A1, “METHOD FOR NON-INVASIVE HYPOXIA DETECTION” (BioVentures, LLC, priority 2023, published 2026)
